Source: patent US12281057B2 (VERTEX PHARMACEUTICALS INCORPORATED, priority 2017, dated 2025)

These compounds were tested against truncated form of human NaV 1.8 with full channel activity (Homo sapiens, UniProt Q9Y5Y9) (assay: E-VIPR Assay Method A for detecting and measuring Nav inhibition (HEK cells, membrane potential FRET dyes, electrical stimulation)). Conditions: HEK cells expressing human NaV 1.8, HS (human serum) in compound loading buffer, 11 point dose response, top dose 3 μM, Table 20A, read-out: Nav 1.8 MedChem Optical Assay EVIPR Assay Method A HS IC50.
Chain of truncated form of human NaV 1.8 with full channel activity (Q9Y5Y9 126-1722 limits assumed): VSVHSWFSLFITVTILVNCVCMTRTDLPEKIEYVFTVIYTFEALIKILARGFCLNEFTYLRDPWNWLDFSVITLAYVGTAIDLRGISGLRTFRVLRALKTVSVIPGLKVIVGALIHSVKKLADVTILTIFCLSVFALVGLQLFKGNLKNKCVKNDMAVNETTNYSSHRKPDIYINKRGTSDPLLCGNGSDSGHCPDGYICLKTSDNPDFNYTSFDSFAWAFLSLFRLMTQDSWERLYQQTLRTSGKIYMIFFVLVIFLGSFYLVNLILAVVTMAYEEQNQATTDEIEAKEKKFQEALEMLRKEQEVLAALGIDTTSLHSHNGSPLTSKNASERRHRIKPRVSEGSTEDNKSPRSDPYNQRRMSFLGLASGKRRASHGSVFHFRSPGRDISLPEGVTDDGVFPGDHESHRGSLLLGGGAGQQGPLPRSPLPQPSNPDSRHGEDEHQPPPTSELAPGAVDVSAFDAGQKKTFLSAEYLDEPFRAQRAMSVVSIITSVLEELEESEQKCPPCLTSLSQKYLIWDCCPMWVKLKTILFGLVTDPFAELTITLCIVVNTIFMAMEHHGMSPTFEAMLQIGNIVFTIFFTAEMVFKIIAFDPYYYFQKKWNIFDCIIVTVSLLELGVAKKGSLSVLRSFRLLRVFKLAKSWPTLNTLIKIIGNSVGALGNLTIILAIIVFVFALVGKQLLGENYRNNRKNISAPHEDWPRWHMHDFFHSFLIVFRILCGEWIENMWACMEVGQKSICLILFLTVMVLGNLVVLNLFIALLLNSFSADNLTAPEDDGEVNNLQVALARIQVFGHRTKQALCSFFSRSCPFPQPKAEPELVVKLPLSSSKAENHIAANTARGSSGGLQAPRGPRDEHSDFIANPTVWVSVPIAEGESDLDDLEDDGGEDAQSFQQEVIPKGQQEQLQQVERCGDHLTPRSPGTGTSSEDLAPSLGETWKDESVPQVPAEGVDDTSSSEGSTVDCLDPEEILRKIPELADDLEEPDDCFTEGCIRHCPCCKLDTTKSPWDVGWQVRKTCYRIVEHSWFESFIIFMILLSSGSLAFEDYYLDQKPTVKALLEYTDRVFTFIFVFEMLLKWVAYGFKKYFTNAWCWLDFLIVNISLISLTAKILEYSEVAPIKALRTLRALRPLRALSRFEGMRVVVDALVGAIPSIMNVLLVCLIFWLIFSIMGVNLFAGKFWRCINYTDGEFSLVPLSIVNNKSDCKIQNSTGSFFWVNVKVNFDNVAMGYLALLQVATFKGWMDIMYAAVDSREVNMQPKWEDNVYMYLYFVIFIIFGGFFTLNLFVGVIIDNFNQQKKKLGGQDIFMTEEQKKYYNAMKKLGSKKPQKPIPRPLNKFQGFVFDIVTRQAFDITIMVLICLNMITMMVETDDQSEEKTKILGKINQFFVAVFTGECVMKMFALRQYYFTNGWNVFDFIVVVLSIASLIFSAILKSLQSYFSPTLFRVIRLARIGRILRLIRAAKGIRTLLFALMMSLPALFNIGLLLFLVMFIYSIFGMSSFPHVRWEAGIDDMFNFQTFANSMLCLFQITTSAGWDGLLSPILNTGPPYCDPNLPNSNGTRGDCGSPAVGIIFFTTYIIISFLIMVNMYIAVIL
Type: cell-based
Text: E-VIPR Assay Method A for Detecting and Measuring Nav Inhibition Properties Sodium ion channels are voltage-dependent proteins that can be activated by inducing membrane voltage changes by applying electric fields. The electrical stimulation instrument and methods of use, referred to as E-VIPR, are described in International Publication No. WO 2002/008748 A3 and C.-J. Huang et al. Characterization of voltage-gated sodium channel blockers by electrical stimulation and fluorescence detection of membrane potential, 24 Nature Biotech. 439-46 (2006), both of which are incorporated by reference in their entirety. The instrument comprises a microtiter plate handler, an optical system for exciting the coumarin dye while simultaneously recording the coumarin and oxonol emissions, a waveform generator, a current- or voltage-controlled amplifier, and parallel electrode pairs that are inserted into assay plate wells. Under integrated computer control, this instrument passes user-programmed electrical stimulus protocols to cells within the wells of the microtiter plate. […] Sigma #F4135), 1% NEAA (Non-Essential Amino Acids, Life Tech #11140), 1% HEPES (Life Tech #15630), 1% Pen-Strep (Penicillin-Streptomycin; […] Cells were expanded in vented cap flasks, with 95% humidity and 5% CO2. Reagents and Stock Solutions: • 100 mg/mL Pluronic F-127 (Sigma #P2443), in dry DMSO • Compound Plates: […] 5% KIR 2.1 Bacmam virus (produced in-house), prepared as described in Section 3.3 of J. A. […] The solution was made by adding 10% Pluronic F127 stock equal to combined volumes of CC2-DMPE and DiSBAC6(3). The order of preparation was first mix Pluronic and CC2-DMPE, then add DiSBAC6(3), then while vortexing add Bath1/β-Cyclodextrin. […] Assay Protocol: […] Final DMSO concentration for all wells in the assay was 0.625% (0.75% DMSO was supplemented to the Compound Loading Buffer for a final DMSO concentration of 0.625%). […] 3) Cell plates were prepared. On the day of the assay, the media was aspirated, and the cells were washed three times with 80 μL of Bath-1 buffer, maintaining 25 μL residual volume in each well. 4) 25 μL per well of Hexyl Dye Solution was dispensed into the cell plates. The cells were incubated for 20 minutes at room temp or ambient conditions in darkness. 5) 80 μL per well of Compound Loading Buffer was dispensed into compound plates. 6) The cell plates were washed three times with 80 μL per well of Bath-1 Buffer, leaving 25 µL of residual volume. Then 25 uL per well from compound plate was transferred to each cell plate. The mixture was incubated for 30 minutes at room temp/ambient conditions. 7) The plate was read on E-VIPR using the current-controlled amplifier to deliver stimulation wave pulses using the following protocol: 1.25 Amps, 2.5 ms pulse width biphasic waveform, 10 Hz for 10 seconds at a scan rate of 200 Hz. A pre-stimulus recording was performed for 0.5 seconds to obtain the un-stimulated intensities baseline. The stimulatory waveform was followed by 0.5 seconds of post-stimulation recording to examine the relaxation to the resting state. Data Analysis: Data were analyzed and reported as normalized ratios of emission intensities measured in the 460 nm and 580 nm channels. The response as a function of time was reported as the ratios obtained using the following formula: […] The data were further reduced by calculating the initial (Ri) and final (Rf) ratios. These were the average ratio values during part or all of the pre-stimulation period and during sample points during the stimulation period. The fluorescence ratio (Rf/Ri) was then calculated and reported as a function of time. Control responses were obtained by performing assays in the presence of the positive control, and in the absence of pharmacological agents (DMSO vehicle negative control). Responses to the negative (N) and positive (P) controls were calculated as above. The compound antagonist % activity A was then defined as: [formula] where X is the ratio response of the test compound. […]

Structure (SMILES) | IC50
NC(=O)c1cc(NC(=O)c2c(Oc3ccc(OC(F)F)cc3F)ccc(C(F)(F)F)c2F)ccn1 [Compound 136, 4-[[6-[4-(Difluoromethoxy)-2-fluoro-phenoxy]-2-fluoro-3-(trifluoromethyl)benzoyl]amino]pyridine-2-carboxamide] | 140 nM
NC(=O)c1cc(NC(=O)c2c(Oc3ccc(OC(F)(F)F)cc3)ccc(C(F)(F)F)c2F)ccc1O [Compound 85, N-(3-carbamoyl-4-hydroxy-phenyl)-2-fluoro-6-[4-(trifluoromethoxy)phenoxy]-3-(trifluoromethyl)benzamide] | 320 nM
NC(=O)c1cc(NC(=O)c2c(Oc3ccc(OC(F)(F)F)cc3)ccc(OC(F)(F)F)c2F)ccn1 [Compound 243, 4-[[2-fluoro-3-(trifluoromethoxy)-6-[4-(trifluoromethoxy)phenoxy]benzoyl]amino]pyridine-2-carboxamide] | 24 nM
NC(=O)c1cc(NC(=O)c2c(Cl)cc(Cl)cc2Oc2ccc(OC(F)(F)F)cc2)ccn1 [Compound 180, 4-[[2,4-Dichloro-6-[4-(trifluoromethoxy)phenoxy]benzoyl]amino]pyridine-2-carboxamide] | 75 nM
[2H]C([2H])([2H])Oc1c(Oc2cc(C(F)(F)F)cc(F)c2C(=O)Nc2ccnc(C(N)=O)c2)ccc(OC(F)(F)F)c1F [Compound 223, 4-[[2-Fluoro-6-[3-fluoro-2-(trideuteriomethoxy)-4-(trifluoromethoxy)phenoxy]-4-(trifluoromethyl)benzoyl]amino]pyridine-2-carboxamide] | 8 nM
NC(=O)c1cc(NC(=O)c2c(Oc3ccc(OC(F)(F)F)cc3)ccc(C(F)(F)F)c2F)ccn1 [Compound 48, 4-[[2-fluoro-6-[4-(trifluoromethoxy)phenoxy]-3-(trifluoromethyl)benzoyl]amino]pyridine-2-carboxamide] | 23 nM
CNC(=O)c1cc(NC(=O)c2c(Oc3ccc(OC(F)(F)F)cc3OC)ccc(C(F)(F)F)c2F)ccc1F [Compound 99, 2-fluoro-N-[4-fluoro-3-(methylcarbamoyl)phenyl]-6-[2-methoxy-4-(trifluoromethoxy)phenoxy]-3-(trifluoromethyl)benzamide] | 3 nM
[2H]C([2H])([2H])Oc1c(Oc2ccc(C(F)F)c(F)c2C(=O)Nc2cc(C(N)=O)ncc2C)ccc(OC(F)(F)F)c1F [Compound 237, 4-[[3-(Difluoromethyl)-2-fluoro-6-[3-fluoro-2-(trideuteriomethoxy)-4-(trifluoromethoxy)phenoxy]benzoyl]amino]-5-methyl-pyridine-2-carboxamide] | 12 nM
CCOc1c(C(F)(F)F)ncc(Oc2ccc(OC(F)(F)F)cc2OC)c1C(=O)Nc1cc(C(N)=O)ncc1C [Compound 210, N-(2-Carbamoyl-5-methyl-4-pyridyl)-3-ethoxy-5-[2-methoxy-4-(trifluoromethoxy)phenoxy]-2-(trifluoromethyl)pyridine-4-carboxamide] | 140 nM
Cn1nccc1-c1cc(F)ccc1Oc1ccc(C(F)(F)F)c(F)c1C(=O)Nc1ccc(F)c(C(N)=O)c1 [Compound 135, N-(3-Carbamoyl-4-fluoro-phenyl)-2-fluoro-6-[4-fluoro-2-(2-methylpyrazol-3-yl)phenoxy]-3-(trifluoromethyl)benzamide] | 140 nM
COc1cc(OC(F)(F)F)ccc1Oc1cnc(C(F)(F)F)c(OC)c1C(=O)Nc1cc(C(N)=O)ncc1C [Compound 144, N-(2-Carbamoyl-5-methyl-4-pyridyl)-3-methoxy-5-[2-methoxy-4-(trifluoromethoxy)phenoxy]-2-(trifluoromethyl)pyridine-4-carboxamide] | 23 nM
Cc1cc(OC(F)(F)F)ccc1Oc1ccc(C(F)(F)F)c(F)c1C(=O)Nc1ccc(C(N)=O)c(F)c1 [Compound 66, N-(4-carbamoyl-3-fluoro-phenyl)-2-fluoro-6-[2-methyl-4-(trifluoromethoxy)phenoxy]-3-(trifluoromethyl)benzamide] | 38 nM

More lines, now with the values ahead:

IC50 | Structure (SMILES)
18 nM | COc1cc(OC(F)(F)F)ccc1Oc1cc(C(C)(C)C)ncc1C(=O)Nc1ccc(F)c(C(N)=O)c1 [Compound 94, 6-tert-Butyl-N-(3-carbamoyl-4-fluoro-phenyl)-4-[2-methoxy-4-(trifluoromethoxy)phenoxy]pyridine-3-carboxamide]
180 nM | COc1cc(OC(F)(F)F)ccc1Oc1cncc(F)c1C(=O)Nc1ccc(F)c(C(N)=O)c1 [Compound 117, N-(3-Carbamoyl-4-fluoro-phenyl)-3-fluoro-5-[2-methoxy-4-(trifluoromethoxy)phenoxy]pyridine-4-carboxamide]
180 nM | COc1cc(OC(F)(F)F)ccc1Oc1cc2c(cc1C(=O)Nc1ccnc(C(N)=O)c1)OC(F)(F)O2 [Compound 121, 4-[[2,2-Difluoro-6-[2-methoxy-4-(trifluoromethoxy)phenoxy]-1,3-benzodioxole-5-carbonyl]amino]pyridine-2-carboxamide]
460 nM | COc1cc(OC(F)(F)F)ccc1Oc1cc2c(cc1C(=O)Nc1ccc(C(N)=O)nc1)OC(F)(F)O2 [Compound 197, 5-[[2,2-Difluoro-6-[2-methoxy-4-(trifluoromethoxy)phenoxy]-1,3-benzodioxole-5-carbonyl]amino]pyridine-2-carboxamide]
34 nM | COc1cc(OC(F)(F)F)ccc1Oc1cc(C2CC2)c(C(F)(F)F)cc1C(=O)Nc1ccnc(C(N)=O)c1 [Compound 125, 4-[[4-Cyclopropyl-2-[2-methoxy-4-(trifluoromethoxy)phenoxy]-5-(trifluoromethyl)benzoyl]amino]pyridine-2-carboxamide]
49 nM | [2H]C([2H])([2H])Oc1cc(OC(F)(F)F)ccc1Oc1cc(C2CC2)ncc1C(=O)Nc1ccc(F)c(C(N)=O)c1 [Compound 88, N-(3-Carbamoyl-4-fluoro-phenyl)-6-cyclopropyl-4-[2-(trideuteriomethoxy)-4-(trifluoromethoxy)phenoxy]pyridine-3-carboxamide]
112 nM | COc1cc(OC(F)(F)F)ccc1Oc1cc(C(F)(F)F)ncc1C(=O)Nc1cccc(C(N)=O)c1 [Compound 29, N-(3-Carbamoylphenyl)-4-[2-methoxy-4-(trifluoromethoxy)phenoxy]-6-(trifluoromethyl)pyridine-3-carboxamide]
22 nM | NC(=O)c1cccc(NC(=O)c2c(Oc3ccc(OC(F)(F)F)cc3)ccc(C(F)(F)F)c2F)c1 [Compound 47, N-(3-carbamoylphenyl)-2-fluoro-6-[4-(trifluoromethoxy)phenoxy]-3-(trifluoromethyl)benzamide]
17 nM | COc1cc(OC(F)(F)F)ccc1Oc1ccc(C(F)(F)F)c(F)c1C(=O)Nc1cc(C(N)=O)ncc1Cl [Compound 152, 5-Chloro-4-[[2-fluoro-6-[2-methoxy-4-(trifluoromethoxy)phenoxy]-3-(trifluoromethyl)benzoyl]amino]pyridine-2-carboxamide]
53 nM | COc1cc(OC(F)(F)F)ccc1Oc1cc(C(F)(F)F)cc(F)c1C(=O)Nc1ccc(C(N)=O)nc1 [Compound 187, 5-[[2-Fluoro-6-[2-methoxy-4-(trifluoromethoxy)phenoxy]-4-(trifluoromethyl)benzoyl]amino]pyridine-2-carboxamide]
1 nM | COc1cc(OC(F)(F)F)ccc1Oc1cc(Cl)c(C)c(F)c1C(=O)Nc1ccnc(C(N)=O)c1 [Compound 201, 4-[[4-Chloro-2-fluoro-6-[2-methoxy-4-(trifluoromethoxy)phenoxy]-3-methyl-benzoyl]amino]pyridine-2-carboxamide]
